Here are results for 13 molecules from patent publication US20260373134A1, “INHIBITORS OF DYRK1A” (Beth Israel Deaconess Medical Center, Inc., priority 2023, published 2026).

Where two headings read alike, the source gives them in different places.

In general, Kd refers to the concentration at which binding is half-saturated. In general, IC50 refers to the concentration that inhibits the measured activity by half. Low values mean higher potency, high ones lower potency.

Test [1] concerns the target T1, DYRK1A (Homo sapiens, UniProt Q13627).
T1 construct: T7 phage (kinase-tagged T7 phage), or a DNA tag for qPCR if produced in HEK-293; made in house; host or cells: E. coli (BL21-derived, T7 phage) for most kinases, HEK-293 for the remaining ones
Put plainly: Kinase assay, % inhibition at fixed concentrations (Table 1b). It counts as binding. Particulars: for inhibition at 10 µM: read-out: % inh at 10 μM. Here is the method: (§1) Methods: a competitive binding assay was used as the primary screen to measure the binding affinity (KD) to DYRK1A. Selectivity against DYRK1B/2 as well as the related CLK1-4 was determined by comparison of the KD in each of the enzymes. Cellular activity of representative compounds was obtained by measuring the p-Tau levels in HEK293 cells expressing human full-length DYRK1A and Tau.
(§2) Kinase assays. For most assays, kinase-tagged T7 phage strains were prepared in an E. coli host derived from the BL21 strain. E. coli were grown to log-phase and infected with T7 phage and incubated with shaking at 32 °C until lysis. The lysates were centrifuged and filtered to remove cell debris. The remaining kinases were produced in HEK-293 cells and subsequently tagged with DNA for qPCR detection. Streptavidin-coated magnetic beads were treated with biotinylated small molecule ligands for 30 minutes at room temperature to generate affinity resins for kinase assays. The liganded beads were blocked with excess biotin and washed with blocking buffer (SeaBlock (Pierce), 1% BSA, 0.05% Tween 20, 1 mM DTT) to remove unbound ligand and to reduce non-specific binding. […] Test compounds were prepared as 111× stocks in 100% DMSO. Kas were determined using an 11-point 3-fold compound dilution series with three DMSO control points. All compounds for Kd measurements are distributed by acoustic transfer (non-contact dispensing) in 100% DMSO. The compounds were then diluted directly into the assays such that the final concentration of DMSO was 0.9%. All reactions performed in polypropylene 384-well plate. Each was a final volume of 0.02 mL. The assay plates were incubated at room temperature with shaking for 1 hour and the affinity beads were washed with wash buffer (1×PBS, 0.05% Tween 20). The beads were then re-suspended in elution buffer (1×PBS, 0.05% Tween 20, 0.5 μM non-biotinylated affinity ligand) and incubated at room temperature with shaking for 30 minutes. The kinase concentration in the eluates was measured by qPCR.

In test [2] the test system is IL-17. Put plainly: T-cell inflammation inhibition assay (anti-CD3 stimulated PBMCs), IL-17. Particulars: Homo sapiens, PBMC, read-out: % inh at 5 μM IL17. Format: cell-based. As to the method: (§3) T-cell Inflammation Inhibition Assay Protocol: Day 1, High binding plates were coated with anti-CD3 (clone UCHT-1, 2 μg/mL) and isotype IgG1 using PBS 1× and incubated overnight at 4 °C. Day 2: Cryopreserved PBMCs were drip thawed and diluted to the appropriate density and seeded into U bottom 96-well polypropylene plates (1.2×10^5 cells per well) with 228 μL per well of culture medium (RPMI 1640, 10% heat-inactivated FBS, 1% penicillin/streptomycin, 2 mM L-glutamine). Cells were incubated at 37 °C, 5% CO2 for 1 hour prior to the addition of test compounds. Test compounds were solubilized in DMSO and further diluted to 20× with cell culture medium. Compounds were added to the PBMCs in volumes of 12 μL (1×) in triplicate and incubated for 1 hour at 37 °C, 5% CO2. For reference compound, 12 μL of dexamethasone (100 nM) was added to the control wells according to the plate map and incubated for 1 hour at 37 °C, 5% CO2. After 1 hour incubation, 200 μL of cells (1×10^5) treated with test compounds or controls were transferred to the anti-CD3 coated plates and incubated for 24 hours at 37 °C, 5% CO2, For positive and negative controls, transferred 200 μL (1×10^5) of cells to the coated plate with anti-CD3 or isotype IgG1. Plates were centrifuged at 200×g for 10 minutes. Cell culture supernatants were collected and stored at −80 °C until needed for analysis. Cytokine levels in each sample were determined using Luminex methodology, per the manufacturer's protocol, Luminex assessment of cytokine levels in cell culture supernatants in tissue culture medium, was performed per manufacturer's protocol using the Human Cytokine/Chemokine Magnetic bead panel from Millipore Sigma (catalogue No. HCYTOMAG-60K) with standards range 3.2, 16, 80, 400, 2,000, 10,000 pg/mL. Cytokines Measured: The following cytokines were measured for a complete cytokine response profile. Human panel, T cell (neat): IL-2, IL-17, […].

Test [3] deals with T1, DYRK1A. In words: Competitive binding assay, KD to DYRK1A. As to the method:
as §1, §2

In test [4] the target is T2, Tau phosphorylation (human DYRK1A and Tau) in HEK293 cells (Homo sapiens, UniProt Q13627).
T2 construct: p-Tau ELISA
In words: Kinase cellular assay: p-Tau levels in HEK293 cells expressing full-length human DYRK1A and Tau. Format: cell-based. Particulars: Table 1a. As to the method:
as §1
Kinase Cellular Assay: HEK293 human embryonic kidney cells were transiently co-transfected with vectors encoding full-length human DYRK1A and Tau. Cells were dispensed into 96-well plates at a number previously determined by cell titration and signal optimization for the DYRK1A assay. Compounds were diluted to 200× final assay concentration in DMSO. Eight 3-fold or 4-fold serial dilutions were prepared for each compound in 100% DMSO. Compounds were then diluted in tissue culture medium to 10× final assay concentration and 5% DMSO. Compounds were added to the cells in 96-well plates (10-fold dilution in medium) for a final concentration of 1× compound and 0.5% DMSO. For positive (high signal) controls, cells were treated with 0.5% DMSO alone. For negative (low signal) controls, cells were treated with 20 μM harmine including 0.5% DMSO final concentration. Cells were incubated with compound at 37 °C for 2 hours. Cells were lysed, and lysates were transferred to an ELISA plate that had been previously coated with antibody to capture the substrate (human Tau). Plates were washed then incubated with an antibody to detect phosphorylation of Tau. Plates were washed then incubated with HRP-linked secondary antibody. Plates were washed, then HRP substrate was added. Absorbance was read at 450 nm. Percent inhibition values were calculated from absorbance readings based on positive and negative control values, and according to the following formula: (% INH=((positive control−sample)/(positive control−negative control))[…]. Z′ values were calculated based on the following formula: 1−[(3×standard deviation of positives+3×standard deviation of negatives)/(average positive−average negative)]. Percent inhibition values were plotted vs. the log of compound concentrations utilizing GraphPad Prism software. IC50s were determined after utilizing sigmoidal dose response curve fitting to generate the curves.

The subject of test [5] is INFg. Put plainly: T-cell inflammation inhibition assay (anti-CD3 stimulated PBMCs), IFN gamma. It counts as cell-based. As to conditions: Homo sapiens, PBMC, read-out: % inh at 5 μM INFg. As to the method: as §3
Test [6] relates to IL-2. In words: T-cell inflammation inhibition assay (anti-CD3 stimulated PBMCs), IL-2. It counts as cell-based. As to conditions: Homo sapiens, PBMC, read-out: % inh at 5 μM IL2. As to the method: as §3

With `COc1ccc2[nH]c(NC(=O)OCc3cccc(F)c3)nc2c1` [Compound 21, 3-Fluorobenzyl (5-methoxy-1H-benzo[d]imidazol-2-yl)carbamate], the inhibition at 10 µM in test [1] turned out to be 69%.

Turning to `COc1ccc2[nH]c(NC(=O)OCC3(C)COC3)nc2c1` [Compound 20, (3-Methyloxetan-3-yl)methyl (5-methoxy-1H-benzo[d]imidazol-2-yl)carbamate], in test [1], the inhibition at 1 µM came to 63% and the inhibition at 10 µM was found to be 96.4%.

With `COc1ccc2[nH]c(N)nc2c1` [Compound 18, 5-Methoxy-1H-benzo[d]imidazol-2-amine], in test [1], the inhibition at 10 µM is 11%.

On to `COC(=O)Nc1nc2cc(-c3ccnc(C)c3)ccc2[nH]1` [Compound 2, Methyl (5-(2-methylpyridin-4-yl)-1H-benzo[d]imidazol-2-yl)carbamate], for which the inhibition at 5 µM worked out at 22.8% in test [2]; 35.9% in test [2] (second value); 31.4% in test [5]; 11.5% in test [5] (second value); 46.5% in test [6]; 42.3% in test [6] (second value). In addition, the results for the dissociation constant Kd in test [3] (read-out: KD) and in test [3] (read-out: KD (bound)) were 0.72 nM and below 1 nM, respectively. Besides, the IC50 in test [4] was determined as 280 nM.

As for `CC1(COC(=O)Nc2nc3cc(-c4ccncc4)ccc3[nH]2)COC1` [Compound 1, (3-methyloxetan-3-yl)methyl (5-(pyridin-4-yl)-1H-benzo[d]imidazol-2-yl)carbamate], in test [3] (read-out: KD), the Kd was determined as 0.17 nM. For the same molecule, in test [3] (read-out: KD (bound)), the Kd is below 1 nM. The molecule further displayed a concentration for half-maximal inhibition (IC50) in test [4] of 37 nM. For the same molecule, in test [1], the inhibition at 1 µM worked out at 100% and the inhibition at 10 µM amounted to 100%. The inhibition at 0.1 µM in test [1] (read-out: % inh at 0.1 μM) was 100%.

Take `O=C(Nc1nc2cc(-c3ccncc3)ccc2[nH]1)OCC1COC1` [Compound 10, Oxetan-3-ylmethyl (5-(pyridin-4-yl)-1H-benzo[d]imidazol-2-yl)carbamate]: the inhibition at 5 µM in test [2] amounted to 35%; in test [2] (second value) it was 30.4%; in test [5], 57.5%; in test [5] (second value), 39.9%; in test [6] it was 76.1%; in test [6] (second value) it was 59.8%. The molecule also came in with an IC50 in test [4] of 26 nM.

Regarding `Cc1cc(-c2ccc3[nH]c(NC(=O)NCC4(C)COC4)nc3c2)ccn1` [Compound 6, 1-((3-Methyloxetan-3-yl)methyl)-3-(5-(2-methylpyridin-4-yl)-1H-benzo[d]imidazol-2-yl)urea], the inhibition at 5 µM worked out at 9.3% in test [2]; 7.3% in test [2] (second value); 30% in test [5]; 38.9% in test [6]; 35.8% in test [6] (second value). Further, half-maximal inhibition in test [4] (IC50) required 827 nM.

Regarding `O=C(Nc1nc2cc(-c3cccnc3)ccc2[nH]1)OCC1COC1` [Compound 7, Oxetan-3-ylmethyl (5-(pyridin-3-yl)-1H-benzo[d]imidazol-2-yl)carbamate], the results for the inhibition at 5 µM in test [5], in test [6] and in test [6] (second value) were 24.4%, 36.9% and 43.4%, respectively.

For `CC1(CNC(=O)Nc2nc3cc(-c4ccncc4)ccc3[nH]2)COC1` [Compound 11, 1-((3-Methyloxetan-3-yl)methyl)-3-(5-(pyridin-4-yl)-1H-benzo[d]imidazol-2-yl)urea], the Kd in test [3] (read-out: KD) is 0.33 nM; in test [3] (read-out: KD (bound)), below 1 nM.

For `Cc1cc(-c2ccc3[nH]c(NC(=O)OCC4COC4)nc3c2)ccn1` [Compound 5, Oxetan-3-ylmethyl (5-(2-methylpyridin-4-yl)-1H-benzo[d]imidazol-2-yl)carbamate], the inhibition at 5 µM turned out to be 47.8% in test [2]; 51.8% in test [2] (second value); 58.8% in test [5]; 46% in test [5] (second value); 78.2% in test [6]; 59.3% in test [6] (second value). The Kd in test [3] (read-out: KD) is 0.33 nM; in test [3] (read-out: KD (bound)), below 1 nM. Also, in test [4], half-maximal inhibition (IC50) required 55 nM.

As to `COc1ccc2[nH]c(NC(=O)OCCN(C)C)nc2c1` [Compound 19, 2-(Dimethylamino)ethyl (5-methoxy-1H-benzo[d]imidazol-2-yl)carbamate], the inhibition at 10 µM in test [1] came out at 51%.

In the case of `Cc1cc(-c2ccc3[nH]c(NC(=O)OCC4(C)COC4)nc3c2)ccn1` [Compound 12, (3-methyloxetan-3-yl)methyl (5-(2-methylpyridin-4-yl)-1H-benzo[d]imidazol-2-yl)carbamate], the Kd was 0.14 nM in test [3] (read-out: KD) and below 1 nM in test [3] (read-out: KD (bound)).

On to `COC(=O)Nc1nc2cc(OC)ccc2[nH]1` [Compound 17, Methyl (5-methoxy-1H-benzo[d]imidazol-2-yl)carbamate], for which, in test [1], the inhibition at 10 µM was 69%.
